From US20250255961A1, “METHODS TO STIMULATE IMMUNE RESPONSES TO MUTANT RAS USING NUCLEATED CELLS” (STEMCELL TECHNOLOGIES CANADA INC., priority 2020, published 2025)

Assays:
[1] = test system: K-Ras G12V responder T cells; assay: IFN-γ ELISPOT: peptide-loaded HLA-A*11+ human PBMCs co-cultured with K-Ras G12V responder T cells; type: cell-based; conditions: Example 8, FIG. 8; HLA-A*11+ human PBMCs SQZ-loaded with one SLP or a combination of two SLPs, each at 100 μM
[2] = test system: K-Ras G12V responder T cells; assay: as above; type: cell-based; conditions: Example 4, FIG. 4, HLA-A*11+ human PBMCs (donor 296) SQZ-loaded with 100 μM SLP
Description: (§1) Human PBMCs from HLA-A*11^+ donor (donor 296) were prepared at a density of 10×10^6/mL, SQZ processed at room temperature through a constriction of 4.5 μm width, 10 μm length and 70 μm depth at 60 psi with 100 μM of the respective K-Ras synthetic long peptide (G12V^1-16, G12V^2-19) or with vehicle control (DMSO) in RPMI medium. Following SQZ-processing, the SQZ-loaded PMBCs were centrifuged, and the supernatant was discarded. The cells were subsequently washed once in R10 medium (RPMI+10% FCS+1% Pen/Strep), then washed twice in CTL medium (supplemented with 1% glutamine), before resuspension in fresh CTL medium (supplemented with 1% glutamine).
2×10^5 SQZ-loaded PBMCs were then placed in co-culture with 5×10^4 K-Ras G12V responder T cells (generated in transgenic mice) in an IFN-γ ELISPOT plate. As a positive control, 10 μM K-Ras G12V^7-16 peptide containing the minimal epitope was added directly to untreated PBMCs and responder cells in the ELISPOT plate (peptide spike). The plate was incubated overnight at 37° C. and then developed/quantified according to manufacturer's instructions.
as §1, with “donor” for “donor (donor 296)”, “constriction with” for “constriction of”, “peptide (K-Ras G12V^3-17, K-Ras G12V^3-42)” for “peptide (G12V^1-16, G12V^2-19)”, “medium. An irrelevant synthetic long peptide (HPV-E7.6) was used as a negative control.” for “medium.”
as §1, with “donor” for “donor (donor 296)”, “10× 10^6/mL,” for “10×10^6/mL,”, “(wild type K-Ras^1-16, G12V^1-16, wild type K-Ras^2-22, or G12V^2-22)” for “(G12V^1-16, G12V^2-19)”
as §1, with “donor” for “donor (donor 296)”, “of a single” for “of the respective”, “peptide (G12V^1-16” for “peptide (G12V^1-16, G12V^2-19)”, “or G12V^2-19), or a combination of two K-Ras synthetic long peptides which are each at 100 μM (G12V^1-16 plus G12D^1-16 or G12V^2-19 plus G12D^1-16) or” for “or with”, “glutamine). […]” for “glutamine).”

Sequence: TEYKLVVVGAVGVGKSAL [G12V^2-19, K-Ras G12V synthetic long peptide, residues 2-19]
- IFN-γ expressing K-Ras-G12V responder T cells upon co-culture [1]: significant increases
- IFN-γ secretion by K-Ras-G12V responder T cells upon co-culture [2]: significantly increased
- IFN-γ secretion by K-Ras-G12V responder T cells upon co-culture ([2]; listed as K-Ras-G12V^2-19): increased amount
